Results: ChEMBL document CHEMBL2401664, “De novo tyrosinase inhibitor: 4-(6,7-dihydro-5H-indeno[5,6-d]thiazol-2-yl)benzene-1,3-diol (MHY1556)” (Bioorg Med Chem Lett, 2013)

Tests used:
[1] = molecular target: T1, Tyrosinase (Mus musculus) (UniProt P11344); assay: Inhibition of tyrosinase in mouse B16F10 cells assessed as L-DOPA oxidation at 0.2 uM after 24 hrs by ELISA (reference value: […] %); type: cell-based; details: B16-F10
T1 sequence (whole entry): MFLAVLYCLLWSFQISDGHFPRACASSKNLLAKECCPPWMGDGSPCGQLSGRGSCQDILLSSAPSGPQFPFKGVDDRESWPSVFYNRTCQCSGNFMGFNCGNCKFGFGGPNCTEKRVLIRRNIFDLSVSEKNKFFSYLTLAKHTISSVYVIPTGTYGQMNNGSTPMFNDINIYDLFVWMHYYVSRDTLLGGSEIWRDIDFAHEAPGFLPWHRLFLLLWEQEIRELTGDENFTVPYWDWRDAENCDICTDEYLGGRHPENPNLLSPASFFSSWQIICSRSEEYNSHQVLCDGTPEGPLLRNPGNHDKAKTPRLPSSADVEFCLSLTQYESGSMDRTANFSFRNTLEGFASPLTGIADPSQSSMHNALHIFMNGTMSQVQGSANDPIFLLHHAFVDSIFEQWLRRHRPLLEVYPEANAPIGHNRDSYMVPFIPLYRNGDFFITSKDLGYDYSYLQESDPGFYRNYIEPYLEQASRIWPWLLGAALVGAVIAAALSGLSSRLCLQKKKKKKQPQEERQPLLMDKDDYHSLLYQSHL

[2] = molecular target: T2, Tyrosinase (Agaricus bisporus) (UniProt O42713); assay: Inhibition of mushroom tyrosinase using L-tyrosine as substrate assessed as amount of dopachrome produced at 0.5 uM after 30 mins by spectrophotometry
T2 sequence (whole entry): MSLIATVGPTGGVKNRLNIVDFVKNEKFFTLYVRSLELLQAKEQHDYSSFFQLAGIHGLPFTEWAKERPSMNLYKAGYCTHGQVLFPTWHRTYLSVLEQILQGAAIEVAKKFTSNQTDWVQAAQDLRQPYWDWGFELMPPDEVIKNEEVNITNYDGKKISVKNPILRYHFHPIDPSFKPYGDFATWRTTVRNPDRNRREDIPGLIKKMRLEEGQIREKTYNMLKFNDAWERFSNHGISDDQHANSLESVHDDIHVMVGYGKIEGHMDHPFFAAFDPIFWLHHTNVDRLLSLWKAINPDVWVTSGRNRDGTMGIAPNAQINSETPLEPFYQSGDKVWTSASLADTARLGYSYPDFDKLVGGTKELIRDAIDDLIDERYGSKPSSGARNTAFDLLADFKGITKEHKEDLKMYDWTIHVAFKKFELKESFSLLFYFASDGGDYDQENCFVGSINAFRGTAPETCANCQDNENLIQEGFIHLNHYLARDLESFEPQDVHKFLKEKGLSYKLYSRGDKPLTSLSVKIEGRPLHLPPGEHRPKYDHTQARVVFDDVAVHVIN

[3] = test system: B16-F10; assay: Inhibition of alphaMSH-induced melanin production in mouse B16F10 cells at 0.1 uM after 48 hrs by melanin content assay (reference value: 163.78 %); type: functional; details: B16-F10, 48 h
[4] = molecular target: T3, Tyrosinase (Agaricus bisporus, UniProt O42713); assay: Inhibition of mushroom tyrosinase using L-tyrosine as substrate assessed as amount of dopachrome produced after 30 mins by spectrophotometry
T3 sequence (O42713 whole entry): T2 sequence (whole entry)

[5] = test system: B16-F10; assay: Inhibition of alphaMSH-induced melanin production in mouse B16F10 cells at 2 uM after 48 hrs by melanin content assay (reference value: 163.78 %); type: functional; details: B16-F10, 48 h
[6] = test system: B16-F10; assay: Inhibition of alphaMSH-induced melanin production in mouse B16F10 cells at 0.05 uM after 48 hrs by melanin content assay (reference value: 163.78 %); type: functional; details: B16-F10, 48 h
[7] = test system: B16-F10; assay: Inhibition of alphaMSH-induced melanin production in mouse B16F10 cells at 0.2 uM after 48 hrs by melanin content assay (reference value: 163.78 %); type: functional; details: B16-F10, 48 h
[8] = Cytotoxicity against mouse B16F10 cells assessed as cell viability at 5 uM after 48 hrs by MTT assay; type: cell-based, B16-F10; details: read-out: Activity
[9] = Cytotoxicity against mouse B16F10 cells assessed as cell viability at 20 uM after 48 hrs by MTT assay; type: cell-based, B16-F10; details: read-out: Activity
[10] = test system: B16-F10; assay: Inhibition of alphaMSH-induced melanin production in mouse B16F10 cells after 48 hrs by melanin content assay; type: functional, cell-based
[11] = Cytotoxicity against mouse B16F10 cells assessed as cell viability at 10 uM after 48 hrs by MTT assay; type: cell-based, B16-F10; details: read-out: Activity
[12] = molecular target: T1, Tyrosinase (Mus musculus); assay: Inhibition of tyrosinase in mouse B16F10 cells assessed as L-DOPA oxidation at 0.1 uM after 24 hrs by ELISA (reference value: […] %); type: cell-based; details: B16-F10
[13] = molecular target: T1, Tyrosinase (Mus musculus); assay: Inhibition of tyrosinase in mouse B16F10 cells assessed as L-DOPA oxidation after 24 hrs by ELISA; type: cell-based; details: B16-F10
[14] = molecular target: T2, Tyrosinase (Agaricus bisporus); assay: Inhibition of mushroom tyrosinase using L-tyrosine as substrate assessed as amount of dopachrome produced at 0.1 uM after 30 mins by spectrophotometry
[15] = molecular target: T2, Tyrosinase (Agaricus bisporus); assay: Inhibition of mushroom tyrosinase using L-tyrosine as substrate assessed as amount of dopachrome produced at 1 uM after 30 mins by spectrophotometry
[16] = Cytotoxicity against mouse B16F10 cells assessed as cell viability at 40 uM after 48 hrs by MTT assay; type: cell-based, B16-F10; details: read-out: Activity
[17] = Cytotoxicity against mouse B16F10 cells assessed as cell viability at 2 uM after 48 hrs by MTT assay; type: cell-based, B16-F10; details: read-out: Activity
[18] = molecular target: T2, Tyrosinase (Agaricus bisporus); assay: Inhibition of mushroom tyrosinase using L-tyrosine as substrate assessed as amount of dopachrome produced at 2 uM after 30 mins by spectrophotometry
[19] = molecular target: T2, Tyrosinase (Agaricus bisporus); assay: Inhibition of mushroom tyrosinase using L-tyrosine as substrate assessed as amount of dopachrome produced at 0.8 uM after 30 mins by spectrophotometry

Oc1ccc(-c2nc3cc4c(cc3s2)CCC4)c(O)c1
inhibition [1]: 109%
inhibition [2]: 56.5%
inhibition at 0.1 µM [3]: 101%
IC50 [4]: 500 nM
inhibition at 2 µM [5]: 88.8%
inhibition at 0.05 µM [6]: 121%
inhibition at 0.2 µM [7]: 94.5%
viability at 48 h, 5 µM [8]: 95%
viability at 48 h, 20 µM [9]: 95.6%
inhibition [10]: Dose-dependent effect
viability at 48 h, 10 µM [11]: 98.1%
inhibition [12]: 133%
inhibition [13]: Dose-dependent effect
inhibition [14]: 22.2%
inhibition [15]: 73.6%
viability at 48 h, 40 µM [16]: 88.4%
viability at 48 h, 2 µM [17]: 97.9%
inhibition [18]: 83.5%
inhibition [19]: 68.3%
